Data on eleven compounds can be found in PubChem BioAssay (NCI).

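Five concentrations, 48 hours, 96-well plates. Abbreviation: GI50, concentration required for 50% inhibition of growth. The concentration for full growth arrest is given as TGI.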

Some test systems named below: 786-0 renal; HCT-116 colon; HCT-15 colon; M14 melanoma; MALME-3M melanoma; OVCAR-8 ovarian; SF-268 CNS; SF-539 CNS; SK-MEL-28 melanoma; UO-31 renal.
Common to all, as to assay: inhibition of tumour cell growth, NCI panel, 48 h

`O=C1c2ccccc2-c2c1c1ccccc1c(=O)n2Cc1ccccc1`: the TGI with 786-0 renal, in the assay with HCT-116 colon, in the assay on HCT-15 colon, with M14 melanoma, in the assay with MALME-3M melanoma and in the assay on OVCAR-8 ovarian was greater than 100 µM throughout. Moreover, the TGI in the assay with SF-268 CNS, in the assay on SF-539 CNS, with SK-MEL-28 melanoma and with UO-31 renal was greater than 100 µM throughout.
As to `N.N.N.N.N.O=C([O-])c1nn[n-]n1.[Cl-].[Co+3]`, the GI50 in the assay with 786-0 renal, in the assay on HCT-116 colon, with HCT-15 colon, in the assay with M14 melanoma, in the assay with MALME-3M melanoma and with OVCAR-8 ovarian was greater than 100 µM each time. In addition, the GI50 with SF-268 CNS, in the assay on SF-539 CNS, in the assay on SK-MEL-28 melanoma and in the assay on UO-31 renal was greater than 100 µM throughout. Also, the TGI in the assay on 786-0 renal, in the assay with HCT-116 colon, in the assay with HCT-15 colon, in the assay on M14 melanoma, in the assay with MALME-3M melanoma and with OVCAR-8 ovarian was greater than 100 µM throughout. Also, the TGI in the assay on SF-268 CNS, in the assay on SF-539 CNS, in the assay on SK-MEL-28 melanoma and in the assay with UO-31 renal was greater than 100 µM each time.
With `Cc1ccc(C(=NN=C(N)N)c2ccc(C)cc2)cc1`, the GI50 with 786-0 renal is 0.623 µM; in the assay with HCT-116 colon, 0.372 µM; in the assay with HCT-15 colon, 0.773 µM; with M14 melanoma, 0.415 µM; in the assay on MALME-3M melanoma, 0.388 µM; in the assay with OVCAR-8 ovarian, 0.773 µM. In addition, the GI50 in the assay on SF-268 CNS is 0.636 µM; in the assay on SF-539 CNS, 2.1 µM; in the assay on SK-MEL-28 melanoma it was 2.2 µM; with UO-31 renal, 1.73 µM. Besides, the TGI with 786-0 renal was 2.86 µM; in the assay with HCT-116 colon, 4.48 µM; in the assay with HCT-15 colon, 8.86 µM; with M14 melanoma it was 2.15 µM; in the assay on MALME-3M melanoma it was 1.91 µM; in the assay with OVCAR-8 ovarian, 3.59 µM. Besides, the TGI in the assay on SF-268 CNS was 6.57 µM; in the assay with SF-539 CNS, 6.99 µM; in the assay on SK-MEL-28 melanoma it was 6.7 µM; with UO-31 renal, 9.76 µM.
`CCN(CC)CCCC(C)Nc1c(C)cnc2cc(Cl)c(C)cc12` (stereo not given): the GI50 with 786-0 renal was 10.8 µM; in the assay on HCT-116 colon, 2.56 µM; with HCT-15 colon it was 11.7 µM; in the assay with M14 melanoma, 1.76 µM; with MALME-3M melanoma it was 14.9 µM; in the assay on OVCAR-8 ovarian, 11.4 µM. Also, the GI50 is 15.3 µM in the assay with SF-268 CNS, 6.83 µM in the assay on SF-539 CNS, 2.49 µM in the assay with SK-MEL-28 melanoma and 17.5 µM in the assay on UO-31 renal. Further, the TGI in the assay on 786-0 renal was 23 µM; in the assay with HCT-116 colon it was 13.6 µM; in the assay on HCT-15 colon it was greater than 68 µM; with M14 melanoma, 3.19 µM; with MALME-3M melanoma, 29.7 µM; with OVCAR-8 ovarian it was 43.5 µM. Besides, the TGI with SF-268 CNS was 33.3 µM; with SF-539 CNS it was 21.1 µM; in the assay with SK-MEL-28 melanoma, 8.99 µM; in the assay on UO-31 renal, greater than 78.5 µM.
For the compound `Nc1ccc(/C=C/c2ccnc3ccccc23)cc1`, the TGI in the assay with 786-0 renal was 57.6 µM; in the assay with HCT-116 colon, 42.4 µM; in the assay on HCT-15 colon, greater than 100 µM; with M14 melanoma it was 51.5 µM; with MALME-3M melanoma, 97.3 µM; with OVCAR-8 ovarian, 88.2 µM. Besides, the TGI is 47.5 µM with SF-268 CNS, 47.9 µM in the assay with SF-539 CNS, greater than 100 µM with SK-MEL-28 melanoma and 47.5 µM in the assay on UO-31 renal.
Turning to `CCOC(=O)NC(=O)c1cn(CCOCCOC(=O)NCCCCCCNC(=O)OCCOCCn2cc(C(=O)NC(=O)OCC)c(=O)[nH]c2=O)c(=O)[nH]c1=O`, the TGI in the assay with 786-0 renal, with HCT-116 colon, with HCT-15 colon, with M14 melanoma, in the assay on MALME-3M melanoma and in the assay with OVCAR-8 ovarian was greater than 100 µM throughout. Further, the TGI with SF-268 CNS, in the assay on SF-539 CNS, in the assay with SK-MEL-28 melanoma and in the assay on UO-31 renal was greater than 100 µM throughout.
For `Cc1cc(SCC(=O)c2ccccc2)nc2ccccc12`, the TGI with 786-0 renal, in the assay with HCT-116 colon, in the assay on HCT-15 colon, with M14 melanoma, with MALME-3M melanoma and with OVCAR-8 ovarian was greater than 100 µM each time. Besides, the TGI in the assay with SF-268 CNS, in the assay on SF-539 CNS, in the assay with SK-MEL-28 melanoma and in the assay with UO-31 renal was greater than 100 µM throughout.
With `CC1=C(C)CC2(CCCCC2=O)S(=O)C1` (stereo not given), the TGI with 786-0 renal, in the assay with HCT-116 colon, in the assay on HCT-15 colon, in the assay on M14 melanoma, with MALME-3M melanoma and with OVCAR-8 ovarian was greater than 100 µM in each case. For the same compound, the TGI in the assay with SF-268 CNS, in the assay on SF-539 CNS, in the assay with SK-MEL-28 melanoma and in the assay on UO-31 renal was greater than 100 µM in each case.
In the case of `Cc1ccccc1N(CCC#N)C1=NN(C(=O)CC(=O)Nc2ccccc2)C(c2ccccc2)C1` (stereo not given), the TGI in the assay with 786-0 renal, with HCT-116 colon, in the assay on HCT-15 colon, in the assay on M14 melanoma, with MALME-3M melanoma and in the assay with OVCAR-8 ovarian was greater than 100 µM throughout. In addition, the TGI in the assay on SF-268 CNS, with SF-539 CNS, in the assay on SK-MEL-28 melanoma and with UO-31 renal was greater than 100 µM in each case.
Take `Cn1cc(C(=O)c2ccccc2)ccc1=O`: the TGI in the assay on 786-0 renal, with HCT-116 colon, with HCT-15 colon, with M14 melanoma, with MALME-3M melanoma and in the assay with OVCAR-8 ovarian was greater than 100 µM each time. Further, the TGI in the assay on SF-268 CNS, in the assay with SF-539 CNS, with SK-MEL-28 melanoma and in the assay on UO-31 renal was greater than 100 µM throughout.
Regarding `CC[O-].CC[O-].O=C1c2ccccc2C(=O)c2c(O)ccc([O-])c21.O=C1c2ccccc2C(=O)c2c(O)ccc([O-])c21.[Ti+4]`, the TGI in the assay with 786-0 renal, with HCT-116 colon, in the assay on HCT-15 colon, in the assay on M14 melanoma, in the assay with MALME-3M melanoma and in the assay on OVCAR-8 ovarian was greater than 100 µM each time. Besides, the TGI with SF-268 CNS, with SF-539 CNS, with SK-MEL-28 melanoma and in the assay with UO-31 renal was greater than 100 µM in each case.
